Assay results taken from patent US20060241122A1, “Combination therapy for the treatment of neoplasms” (priority 2003, published 2006).
Where two headings read alike, the source gives them in different places.

Assays:
[1] = test system: human colorectal carcinoma HCT116 cells; experiment: Anti-proliferation assay (Alamar Blue metabolism), HCT116 cells;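 note: cells in 384-well plates exposed to compound combination matrices for 72 h, Alamar Blue fluorescence read (excitation 530 nm), inhibition calculated against mean of vehicle-only wells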
Experimental: Stock solutions (1000×) of each compound were prepared in DMSO and stored at −20° C. Master stock plates of 2-fold or 4-fold serial dilutions of individual compounds were prepared in 384-well plates. Combination matrices of test compounds were generated from these master stock plates by dilution into growth media described above. […] The combination matrices were used immediately and discarded.
The anti-proliferation assays were performed in 384-well plates. […] Cells were diluted in culture media such that 3,000 SKMEL-28 cells, or 1,500 cells for all the other cell lines, were delivered in 35 μl of media into each assay well. Assay plates were incubated for 16-24 hours 37° C.±0.5° C. with 5% CO2. After incubation, 4.5 μl of 10× stock solutions from the combination matrices were added to 40 μl of culture media. Assay plates were further incubated for 72 hours at 37° C.±0.5° C. with 5% CO2. […] Alamar Blue metabolism was quantified by the amount of fluorescence intensity 3.5-5.0 hours after addition. Quantification, using an LJL Analyst AD reader (LJL Biosystems), was taken in the middle of the well with high attenuation, a 100 msec read time, an excitation filter at 530 nm, and an emission filter at 575 nm. For some experiments, quantification was performed using a Wallac Victor^2 reader. Measurements were taken at the top of the well with stabilized energy lamp control; a 100 msec read time, an excitation filter at 530 nm, and an emission filter at 590 nm.

[2] = test system: human pancreatic cancer PANC1 cells; experiment: Anti-proliferation assay (Alamar Blue metabolism), PANC1 cells; type: cell-based; conditions: PANC1 cells
From the text: (§1) The combination matrices were used immediately and discarded.

[3] = test system: human prostate cancer DU145 cells; experiment: Anti-proliferation assay (Alamar Blue metabolism), DU145 cells; type: cell-based; conditions: Homo sapiens, DU-145, DU145 cells
From the text: as §1

[4] = test system: human melanoma SKMEL-28 cells; experiment: Anti-proliferation assay (Alamar Blue metabolism), SKMEL-28 cells; type: cell-based
From the text: as §1

[5] = test system: non-small cell lung carcinoma A549 cells; experiment: Anti-proliferation assay (Alamar Blue metabolism), A549 cells; type: cell-based; conditions: A549 cells
Experimental: Inhibition of proliferation was measured by anti-proliferation assay as described below after incubation with the test compound(s) for 72 hours.
as §1
Cells were diluted in culture media such that 3,000 SKMEL-28 cells, or 1,500 cells for all the other cell lines, were delivered in 35 μl of media into each assay well. Assay plates were incubated for 16-24 hours 37° C.±0.5° C. with 5% CO2. […] Assay plates were further incubated for 72 hours at 37° C.±0.5° C. with 5% CO2. […] Alamar Blue metabolism was quantified by the amount of fluorescence intensity 3.5-5.0 hours after addition.
The percent inhibition (% I) for each well was calculated using the following formula: % I=[(avg. untreated wells−treated well)/(avg. untreated wells)]×100 The average untreated well value (avg. untreated wells) is the arithmetic mean of 40 wells from the same assay plate treated with vehicle alone.

[6] = Homo sapiens, HCT-116, read-out: Percent inhibition of Alamar Blue Metabolism, lovastatin […], econazole 0.0 μM
[7] = Homo sapiens, HCT-116, read-out: Percent inhibition of Alamar Blue Metabolism, tioconazole 0.0 μM, lovastatin […]
[8] = with addition of 7 μM itraconazole
[9] = Homo sapiens, HCT-116, read-out: Percent inhibition of Alamar Blue Metabolism, lovastatin 0.0 μM, econazole […]
[10] = Homo sapiens, HCT-116, read-out: Percent inhibition of Alamar Blue Metabolism, tioconazole […], lovastatin 0.0 μM

## CC(C)n1c(/C=C/C(O)CC(O)CC(=O)O)c(-c2ccc(F)cc2)c2ccccc21 (stereo not shown) [Fluvastatin, fluvastatin]
[1]; HCT116 cells, […] with 7 μM itraconazole vs 49 μM alone
  reduction in the concentration of fluvastatin: 8 fold
[1]; Homo sapiens, HCT-116, HCT116 cells, […] fluvastatin + 7 μM itraconazole
  inhibition at […]: 91.9%
[1]; Homo sapiens, HCT-116, read-out: maximal inhibition, HCT116 cells, fluvastatin 49 μM alone
  inhibition at 49 µM: 93.1%
[2]; Homo sapiens, PANC-1, 12 μM fluvastatin + 7 μM itraconazole
  inhibition at 12 µM: 56.8%
[2]; Homo sapiens, PANC-1, fluvastatin 49 μM alone, read-out: maximal inhibition
  inhibition at 49 µM: 59.9%
[3]; 12 μM fluvastatin + 14 μM itraconazole
  inhibition at 12 µM: 40.3%
[3]; 12 μM fluvastatin, absence of itraconazole
  inhibition at 12 µM: 15.5%
[3]; fluvastatin 49 μM alone, read-out: maximal inhibition
  inhibition at 49 µM: 58.3%
[4]; Homo sapiens, SK-MEL-28, SKMEL-28 cells, 3 μM fluvastatin + 7 μM itraconazole
  inhibition at 3 µM: 59.5%
[4]; Homo sapiens, SK-MEL-28, SKMEL-28 cells, fluvastatin 49 μM alone, read-out: maximal inhibition
  inhibition at 49 µM: 27.8%
[4]; SKMEL-28 cells, 3 μM with 7 μM itraconazole vs 49 μM alone
  reduction in the concentration of fluvastatin: 16 fold
[4]; Table 13: itraconazole 0.87 μM + fluvastatin at row conc. c1 (0-49 μM), 72 h
  Percent inhibition of Alamar Blue Metabolism in SKMEL-28 cells: 35.4%

## CC[C@H](C)C(=O)O[C@H]1C[C@@H](C)C=C2C=C[C@H](C)[C@H](CC[C@@H]3C[C@@H](O)CC(=O)O3)[C@H]21 [Lovastatin, lovastatin]
[1]; HCT116 cells, 6 μM with […] itraconazole vs 48 μM alone
  reduction in the concentration of lovastatin: 8 fold
[1]; Homo sapiens, HCT-116, HCT116 cells, 6.0 μM lovastatin + 9.0 μM tioconazole
  inhibition at 6 µM: 70.1%
[1]; Homo sapiens, HCT-116, HCT116 cells, 6 μM lovastatin + […] itraconazole
  inhibition at 6 µM: 83.4%
[1]; Homo sapiens, HCT-116, HCT116 cells, 18 μM lovastatin + […] econazole
  inhibition at 18 µM: 84.5%
[1]; Homo sapiens, HCT-116, read-out: Percent inhibition of Alamar Blue Metabolism, lovastatin 0.3 μM, econazole 0.0 μM
  inhibition at 0.3 µM: 10.5%
[1]; Homo sapiens, HCT-116, read-out: Percent inhibition of Alamar Blue Metabolism, lovastatin 0.6 μM, econazole 0.0 μM
  inhibition at 0.6 µM: 5.4%
[1]; Homo sapiens, HCT-116, read-out: Percent inhibition of Alamar Blue Metabolism, lovastatin 9.0 μM, econazole 0.0 μM
  inhibition at 9 µM: 27.3%
[1]; [6]
  inhibition at 18 µM: 41.3%
  inhibition at 36 µM: 95.6%
[1]; Homo sapiens, HCT-116, read-out: Percent inhibition of Alamar Blue Metabolism, tioconazole 0.0 μM, lovastatin 0.2 μM
  inhibition at 0.2 µM: 9.8%
[1]; Homo sapiens, HCT-116, read-out: Percent inhibition of Alamar Blue Metabolism, tioconazole 0.0 μM, lovastatin 0.4 μM
  inhibition at 0.4 µM: 23.1%
[1]; Homo sapiens, HCT-116, read-out: Percent inhibition of Alamar Blue Metabolism, tioconazole 0.0 μM, lovastatin 0.8 μM
  inhibition at 0.8 µM: 12.3%
[1]; Homo sapiens, HCT-116, read-out: Percent inhibition of Alamar Blue Metabolism, tioconazole 0.0 μM, lovastatin 3.0 μM
  inhibition at 3 µM: 29.9%
[1]; Homo sapiens, HCT-116, read-out: Percent inhibition of Alamar Blue Metabolism, tioconazole 0.0 μM, lovastatin 6.0 μM
  inhibition at 6 µM: 46.1%
[1]; [7]
  inhibition at 12 µM: 50%
  inhibition at 24 µM: 61.9%
  inhibition at […]: 32.2%
[1]; Homo sapiens, HCT-116, read-out: maximal inhibition, HCT116 cells, lovastatin 24 μM alone (Example 22)
  inhibition at 24 µM: 61.9%
[1]; Homo sapiens, HCT-116, read-out: maximal inhibition, HCT116 cells, lovastatin 36 μM alone (Example 20)
  inhibition at 36 µM: 95.6%
[1]; Homo sapiens, HCT-116, read-out: maximal inhibition, HCT116 cells, lovastatin 48 μM alone (Example 14)
  inhibition at 48 µM: 55%
[1]; Table 14: itraconazole 14 μM + lovastatin at row conc. c1 (0-48 μM), 72 h
  Percent inhibition of Alamar Blue Metabolism in HCT116 cells: 88.9%

## CCC(C)(C)C(=O)O[C@H]1C[C@@H](C)C=C2C=C[C@H](C)[C@H](CC[C@@H]3C[C@@H](O)CC(=O)O3)[C@H]21 [Simvastatin, simvastatin]
[1]; Homo sapiens, HCT-116, HCT116 cells, 12 μM simvastatin + 7 μM itraconazole
  inhibition at 12 µM: 92.7%
[2]; [8]
  simvastatin concentration required for nearly maximal inhibition: 12 µM
[4]; SKMEL-28 cells, 6 μM with 7 μM itraconazole vs 48 μM alone
  reduction in simvastatin: 8 fold
[4]; SKMEL-28 cells, 9 μM statin + 7 μM itraconazole
  inhibition of cell proliferation: 61.8%
[4]; SKMEL-28 cells, 9 μM statin, absence of itraconazole
  inhibition: 24.0%
[5]; 12 μM with 7 μM itraconazole vs 48 μM alone
  reduction in the concentration of simvastatin: 4 fold
[5]; [8]
  simvastatin concentration required for nearly maximal inhibition: 12 µM

## COCc1c(C(C)C)nc(C(C)C)c(/C=C/[C@@H](O)C[C@@H](O)CC(=O)O)c1-c1ccc(F)cc1 [cerivastatin]
[1]; HCT116 cells, […] with […] itraconazole vs 22 μM alone
  reduction in the concentration of cerivastatin: 8 fold
[1]; Homo sapiens, HCT-116, read-out: Percent inhibition of Alamar Blue Metabolism, cerivastatin 22 μM, itraconazole 0 μM
  inhibition at 22 µM: 85.5%
[1]; Homo sapiens, HCT-116, read-out: maximal inhibition, HCT116 cells, cerivastatin 22 μM alone
  inhibition at 22 µM: 85.5%

## Clc1ccccc1C(c1ccccc1)(c1ccccc1)n1ccnc1 [clotrimazole]
[1]; Homo sapiens, HCT-116, read-out: Percent inhibition of Alamar Blue Metabolism, atorvastatin 0.0 μM, clotrimazole 0.5 μM
  inhibition at 0.5 µM: 25.9%
[1]; Homo sapiens, HCT-116, read-out: Percent inhibition of Alamar Blue Metabolism, atorvastatin 0.0 μM, clotrimazole 0.9 μM
  inhibition at 0.9 µM: 35.8%

## Clc1ccc(COC(Cn2ccnc2)c2ccc(Cl)cc2Cl)cc1 (stereo not shown) [econazole]
[1]; Homo sapiens, HCT-116, read-out: Percent inhibition of Alamar Blue Metabolism, atorvastatin 0.0 μM, econazole 0.4 μM
  inhibition at 0.4 µM: 0.7%
[1]; Homo sapiens, HCT-116, read-out: Percent inhibition of Alamar Blue Metabolism, atorvastatin 0.0 μM, econazole 0.7 μM
  inhibition at 0.7 µM: -1.7%
[1]; Homo sapiens, HCT-116, read-out: Percent inhibition of Alamar Blue Metabolism, atorvastatin 0.0 μM, econazole 2.8 μM
  inhibition at 2.8 µM: 1.6%
[1]; Homo sapiens, HCT-116, read-out: Percent inhibition of Alamar Blue Metabolism, lovastatin 0.0 μM, econazole 0.4 μM
  inhibition at 0.4 µM: 0.6%
[1]; Homo sapiens, HCT-116, read-out: Percent inhibition of Alamar Blue Metabolism, lovastatin 0.0 μM, econazole 0.8 μM
  inhibition at 0.8 µM: 8.8%
[1]; Homo sapiens, HCT-116, read-out: Percent inhibition of Alamar Blue Metabolism, lovastatin 0.0 μM, econazole 3.0 μM
  inhibition at 3 µM: 23.9%
[1]; Homo sapiens, HCT-116, read-out: Percent inhibition of Alamar Blue Metabolism, lovastatin 0.0 μM, econazole 6.0 μM
  inhibition at 6 µM: 36.7%
[1]; Homo sapiens, HCT-116, read-out: Percent inhibition of Alamar Blue Metabolism, lovastatin 0.0 μM, econazole 48.0 μM
  inhibition at 48 µM: 96.1%
[1]; [9]
  inhibition at 12 µM: 57.2%
  inhibition at 24 µM: 78.6%
  inhibition at […]: 14.9%
[1]; Homo sapiens, HCT-116, read-out: maximal inhibition, HCT116 cells, 36 μM alone (Example 18)
  inhibition at 36 µM: 83.1%

## CC[C@H](C)C(=O)O[C@H]1C[C@@H](C)C=C2C=C[C@H](C)[C@H](CCC(O)C[C@@H](O)CC(=O)O)[C@H]21 (stereo partly shown) [lovastatin sodium]
[1]; HCT116 cells, 2.8 μM with 7 μM itraconazole vs 22 μM alone
  reduction in the concentration of lovastatin: 8 fold
[1]; Homo sapiens, HCT-116, HCT116 cells, 2.8 μM lovastatin sodium + 7 μM itraconazole
  inhibition at 2.8 µM: 82%
[1]; Homo sapiens, HCT-116, read-out: maximal inhibition, HCT116 cells, lovastatin sodium 22 μM alone
  inhibition at 22 µM: 58.9%

## CC(C)N1CCN(c2ccc(OCC3COC(Cn4cncn4)(c4ccc(Cl)cc4Cl)O3)cc2)CC1 (stereo not shown) [terconazole]
[1]; Homo sapiens, HCT-116, read-out: Percent inhibition of Alamar Blue Metabolism, atorvastatin 0 μM, terconazole 19 μM
  inhibition at 19 µM: 38.4%
[1]; Homo sapiens, HCT-116, read-out: Percent inhibition of Alamar Blue Metabolism, atorvastatin 0 μM, terconazole 38 μM
  inhibition at 38 µM: 94.8%

## Clc1ccc(C(Cn2ccnc2)OCc2ccsc2Cl)c(Cl)c1 (stereo not shown) [tioconazole]
[1]; Homo sapiens, HCT-116, read-out: Percent inhibition of Alamar Blue Metabolism, tioconazole 0.3 μM, lovastatin 0.0 μM
  inhibition at 0.3 µM: 8.6%
[1]; Homo sapiens, HCT-116, read-out: Percent inhibition of Alamar Blue Metabolism, tioconazole 0.6 μM, lovastatin 0.0 μM
  inhibition at 0.6 µM: 3.7%
[1]; Homo sapiens, HCT-116, read-out: Percent inhibition of Alamar Blue Metabolism, tioconazole 9.0 μM, lovastatin 0.0 μM
  inhibition at 9 µM: 19.8%
[1]; [10]
  inhibition at 18 µM: 26.8%
  inhibition at 36 µM: 41.3%
